Experimental findings from US8822216B2, “DNA regulatory element for the expression of transgenes in neurons of a subject and uses thereof” (priority 1997, dated 2014) are described below.

One data set has as its system NMDA receptors. In words: NMDA-mediated synaptic field potentials in hippocampal slices (DNQX, reduced Mg2+). Format: cell-based, mouse.
In data set [1] the test system is Schaffer collateral-CA1 synapse. Put plainly: Chemically induced slow-onset potentiation (L-LTP) in hippocampal slices. Format: cell-based, mouse. As to the method:
FIG. 13C) and FIG. 13D): Drug was added at the time indicated in both panels at a concentration of 100 µM. Each point in the time courses represents the mean fEPSP slope±SEM normalized to the average of the predrug fEPSP slope. Insets show representative fEPSP traces just before drug addition and 3 hours after.
Is this reduction due to a direct effect on downstream components of L-LTP, or is it due to a failure to fully initiate L-LTP? To begin to explore this question we examined L-LTP evoked by pharmacological activation of the […], which bypasses tetanic stimulation in area CA1. In addition to being evoked through multiple high frequency tetani to the Schaffer collaterals, L-LTP in area CA1 can be induced chemically through either application of D1/D5 dopamine receptor agonists or direct activators of adenylyl cyclase and PKA. In wild-type slices, application of agonists of D1/D5 dopamine receptors or the PKA agonist Sp-cAMPS, result in a slow-onset potentiation of synaptic transmission that is sensitive to protein and RNA-synthesis inhibitors, and mutually occlusive with L-LTP elicited by multiple high frequency trains (Huang and Kandel, 1994; Huang et al., 1994; Bolshakov et al., 1997). If overexpression of calcineurin directly affects the machinery necessary to produce the late phase, pharmacologically-induced L-LTP, that bypasses E- and I-LTP, would be impaired in CN98-mutant mice, as is the case with the late phase deficit in tPA-knockout mice (Huang et al., 1996a).
We tested the ability of both the D1/D5 receptor agonist 6-Br-APB (100 μM) and the PKA activator Sp-cAMPs (100 μM) to elicit slow-onset potentiation at the Schaffer collateral-CA1 synapse in CN98 mice.
For extracellular recordings, ACSF-filled glass electrodes (1-3 MΩ) were positioned in the stratum radiatum of area CA1. A bipolar nichrome stimulating electrode was also placed in stratum radiatum for stimulation of Schaffer collateral afferents (0.05 ms duration). […]

The next data set concerns calcineurin. In words: Phosphatase assay in hippocampal extracts. Format: biochemical, mouse. As to the method:
Phosphatase assays were performed according to Hubbard and Klee (1991). Briefly, mice were injected with 5 ml/kg of pentobarbital and decapitated. Hippocampi were dissected out, homogenized in 2 mM EDTA (pH 8), 250 mM sucrose, 0.1% Bmercaptoethanol and centrifuged. Supernatants were diluted in 40 mM Tris-HCl (pH 8), 0.1M NaCl, 0.04 mg/ml bovine serum albumin, 1 mM DTT, […] (Buffer 1) and incubated at 30° C. for 1 min in Buffer 1 containing 1 mM of the peptide [γ^32P]-RII subunit of cyclic AMP-dependent protein kinase (PKA) and either 0.1 mM calmodulin (Sigma) and 0.66 mM Ca^2+ or 0.33 mM EGTA (pH 7.5). The peptide ^97[Ala]-RII (Peninsula Labs) was labeled with 0.3 roM [γ^32P]ATP (NEN) using 4 mg catalytic subunit of PKA (Fluka). The reaction was stopped with 5% TCA in 0.1 M KH2P04 and the enzyme activity was calculated as previously described (Klee et al., 1983) and is expressed in nmol Pi release/min/mg protein. The protein concentration was determined using the bicinchroninic acid protein assay kit (Sigma). All samples were performed in triplicate.
Phosphatase assays were performed as described in Winder et al., 1997. Briefly, mice were injected with 5 ml/kg of pentobarbital and decapitated. Hippocampi were dissected out, homogenized in 2 mM EDTA (pH 8), 250 mM sucrose, 0.1 k β-mercaptoethanol. Supernatants were incubated at 30° C. for 1 min in presence of the […] [Ala97]-RII peptide and either 0.1 mM calmodulin and 0.66 mM Ca^2+ or 0.33 mM EGTA. The reaction was stopped and the enzyme activity calculated previously as described (Klee et al., 1983; 1987). The activity was expressed in nmol Pi released/min/mg protein. The protein concentration was determined using the bicinchroninic acid protein assay kit (Sigma). All samples were performed in triplicate.

In data set [2] the test system is Schaffer collateral-CA1 pyramidal cell synapse. It counts as cell-based, mouse. The note with it: wild-type slices.
Data set [3] has the same test system. Put plainly: LTP induced by two 100 Hz trains in hippocampal slices. The note with it: for LTP induced by two 100 Hz trains in mutant mice after pretreatment: Tet-CN279 mutant slices, 750 nM calyculin A for 30 minutes. Format: cell-based, mouse. The text has this: In an attempt to isolate, in still another way, the novel intermediate phase in which PKA acts to suppress a phosphatase cascade we varied the number of tetanic trains of stimulation. One of the characteristics that distinguishes E-LTP from L-LTP is that weak stimuli such as a single 100 Hz train elicit E-LTP but not L-LTP. In contrast, to reliably induce L-LTP, 3-4 repeated 100 Hz trains are required. We therefore sought to determine if an intermediate phase of LTP could also be distinguished from these phases based on the strength of stimulus required. We elicited LTP with two 100 Hz trains spaced by 20 seconds. This protocol elicited LTP that was more robust than that elicited by one 100 Hz train, but less maintained than that elicited by four trains (FIG. 14C). In contrast to LTP elicited by a single 100 Hz train which is not affected by inhibitors of PKA (Huang et al., 1996), LTP elicited by two trains was partially sensitive to the PKA inhibitor KT5720 (no drug: […]; 1 μM KT5720: 153±5% of baseline at 1 hr, 5 slices, 4 mice; […]; FIG. 14D). […] These two types of experiments reveal a novel intermediate phase of LTP (I-LTP) exists that requires 1) a stronger stimulus than E-LTP, and 2) the activation of PKA.
Transverse hippocampal slices were prepared as previously described (Huang and Kandel, 1994). Mice of either sex, aged 7-18 weeks were used. In all appropriate cases, the experimenter was blinded to animal genotype. Hippocampi was rapidly unilaterally dissected out on ice, and […] slices were cut on a McIlwain tissue chopper and placed in oxygenated ACSF (NaCl, 124 mM, KCl, 4.4 mM; CaCl2, 2.5 mM; MgSO4, 1.3 mM; NaH2PO4, 1 mM; glucose, 10 mM; and NaHCO3 26 mM). The slices were then transferred to an interface chamber where they were subfused with oxygenated ACSF (1-2 ml/min) and allowed to equilibrate for 60-90 min at 28° C.
For extracellular recordings, ACSF-filled glass electrodes (1-3 MΩ) were positioned in the stratum radiatum of area CA1. A bipolar nichrome stimulating electrode was also placed in stratum radiatum for stimulation of Schaffer collateral afferents (0.05 ms duration). Unless otherwise mentioned, test stimuli were applied at a frequency of 1 per minute (0.017 Hz), and at a stimulus intensity that elicits a fEPSP slope that was 35% of the maximum. Experiments in which a significant change in the fiber volley amplitude occurred, were discarded. Drugs were applied through the perfusion medium. DL-AP5, calyculin A, KT5720 and R(+)-6-Bromo-[…]-3-allyl-1-phenyl-2,3,4-tetrahydro-1H-3-benzazepine (6-Br-APB) were purchased from Research Biochemicals International, Natick, Mass. DL-AP5 was dissolved directly into ACSF prior to use. Calyculin A, KT5720 and 6-Br-APB were dissolved as 100× stocks in DMSO and diluted into ACSF just before use. Sp-cAMPS (Biolog, La Jolla, Calif.) was dissolved directly in ACSF.

The subject of a further data set is wild-type mice. Put plainly: Effect of doxycycline itself on memory of wild-type mice. Format: in vivo, mouse.
In another data set the test system is CaMKII. In words: CaMKII enzyme activity in striatum of B21 double transgenic mice on doxycycline. Format: in vivo, mouse. As to the method: In double transgenic mice, a high level of expression of the CaMKII-Asp mRNA was obtained (FIGS. 5B and 7A-D). To determine the effect of this expression on enzyme activity. CaMKII activity was measured in the striatum of the B21 line of mice (Table 1).
Brains were removed and the striatum was dissected and immediately homogenized in 20 mM tris-HCl (pH 7.5), 0.5 mM EGTA, 0.5 mM EDTA, 2 mM leupeptin, 0.4 mM dithiothreitol, 0.1 mM phenylmethysulfonyl flouride, 0.4 mM molybdate, and 10 mM sodium pyrophosphate. CaMKII enzyme activity was determined as described (Mayford et al., 1995). B21+Dox animals received doxycycline (1 mg/ml) plus 5% sucrose in the drinking water for 3 to 5 weeks. B21+Dox withdrawal animals received doxycycline (1 mg/ml) for 3 to 5 weeks and were then switched to normal water for 6 weeks. The number of mice is given in parentheses.

Data set [4] has as its system Schaffer collateral LTP in CA1 of hippocampal slices. In words: 10-Hz LTP in CA1 of hippocampal slices (field EPSP slope). Particulars: doxycycline 1 mg/ml drinking water 2 to 3 weeks, 1 ng/ml in perfusate. It counts as cell-based, mouse.
Setting [5] is: Dox withdrawal: doxycycline 1 mg/ml 3 to 5 weeks, then normal water 6 weeks.
The mark [6] stands for this setting: doxycycline 1 mg/ml plus 5% sucrose in drinking water 3 to 5 weeks.

With `NC(CCCP(=O)(O)O)C(=O)O` (racemic) [DL-A95, DL-AP5], the “NMDA-mediated field potentials in 10 μM DNQX and reduced Mg2+ (50 μM)” value in the data set on NMDA receptors is recorded as “completely antagonized”.
With `C=CCN1CCc2c(cc(O)c(O)c2Br)[C@@H](c2ccccc2)C1` [6-Br-APB, R(+)-6-Bromo-7,0-dihydroxy-3-allyl-1-phenyl-2,3,4-tetrahydro-1H-3-benzazepine], in data set [1] (CN98 mutant, 6-Br-APB 100 μM), the “fEPSP slope, % of baseline at 3 hr after drug application” value worked out at 181±41%.
As for `O=C(O)CN(CCOCCOCCN(CC(=O)O)CC(=O)O)CC(=O)O` [EGTA], the “phosphatase enzyme activity in hippocampal extracts” value was 0.32±0.14 nmol Pi/min/mg in the data set on calcineurin (CN98 mutant + EGTA), 0.427±0.16 nmol Pi/min/mg in the data set on calcineurin (CN98 wild-type + EGTA), 0.287±0.17 nmol Pi/min/mg in the data set on calcineurin (mutant (Tet-CN279+Tet-CN273) + EGTA) and 0.432 ± 0.11 nmol Pi/min/mg in the data set on calcineurin (wild-type (Tet-CN279+Tet-CN273) + EGTA). Also, the “phosphatase activity” value with calcineurin (CN98 mutant and wild-type hippocampal extracts in the presence of EGTA) is on record as “virtually abolished”.
Consider `CCCCCCOC(=O)[C@]1(O)C[C@@H]2O[C@@]1(C)n1c3ccccc3c3c4c(c5c6ccccc6n2c5c31)C(=O)NC4` [KT5720], for which the “decay of LTP induced by four 100 Hz trains, compared with anisomycin” value in data set [2] (KT5720 1 μM, 20 minute pretreatment, anisomycin 30 μM one hour prior to tetanus) is given as “much more rapid decay”. Further, in data set [3] (wild-type slices, 1 μM KT5720), the “fEPSP slope, % of baseline at 1 hr after two 100 Hz trains” value was determined as 153±5%.
Consider `Nc1ncnc2c1ncn2[C@@H]1O[C@@H]2COP(O)(=S)O[C@H]2[C@H]1O` (stereo partly drawn) [Sp-cAMPS], for which the “fEPSP slope, % of baseline at 3 hr after drug application” value is given as 204±40% in data set [1] (CN98 wild-type, printed as Sp-cAMPS application, 100 μM) and 124±13% in data set [1] (wild-type, Sp-cAMPS 100 μM).
In the case of `COc1ccc(C[C@H]2NC[C@H](O)[C@H]2OC(C)=O)cc1` [anisomycin], the “LTP induced by four trains” value in data set [2] (anisomycin 30 μM) is recorded as “reduced”. For the same compound, in data set [3] (wild-type slices, anisomycin 30 μM), the “sensitivity of LTP elicited by two trains to preincubation with the drug” value was “completely insensitive”.
On to `COC[C@@H]([C@H](O)[C@H](O)C(=O)NCC[C@H](C)c1nc(/C=C/C[C@@H]2O[C@]3(C[C@@H](O)[C@@H]2C)O[C@H]([C@H](C[C@H](O)[C@H](C)[C@H](O)[C@H](C)/C=C(C)/C(C)=C/C=C/C(C)=C\C#N)OC)[C@H](OP(=O)(O)O)C3(C)C)co1)N(C)C` [calyculin A], for which the “LTP induced by two 100 Hz trains in mutant mice after pretreatment” value in data set [3] is recorded as “indistinguishable from that seen in wild-type”; in data set [3] (listed as Calyculin A) it was “rescues the deficit”.
For `C[C@H]1c2cccc(O)c2C(=O)C2=C(O)[C@]3(O)C(=O)C(C(N)=O)=C(O)[C@@H](N(C)C)[C@@H]3[C@@H](O)[C@@H]21` [doxycycline], the memory result in the data set on wild-type mice (doxycycline treatment in the adult animal) was “did not affect memory”. Further, the “adult spatial memory and memory for fear conditioning” value in the data set on wild-type mice (wild-type mice, doxycycline 1 mg/ml during development) was “impaired”. Besides, the “CaMKII Activity Ca^2+-independent (%)” value is recorded as 5.70 ± 0.43% in the data set with CaMKII (setting [5]) and 1.22 ± 0.03% in the data set on CaMKII (setting [6]). The “CaMKII Activity With Ca^2+” value with CaMKII (setting [5]) came out at 14.2 ± 0.7 pmol/min/µg; in the data set on CaMKII (setting [6]) it was 12.9 ± 1.5 pmol/min/µg. Also, the “CaMKII Activity Without Ca^2+” value in the data set on CaMKII (setting [5]) was 0.80 ± 0.03(3) pmol min^−1 μg^−1; in the data set on CaMKII (setting [6]), 0.16 ± 0.04(5) pmol min^−1 μg^−1. Besides, the “field EPSP slope as percentage of pre-tetanus baseline after 10-Hz tetanus” value in data set [4] (B13 double transgenic mice) stood at 132±10%; in data set [4] (wild-type mice) it was 122±6%. Moreover, the “fEPSP slope, % of baseline at 1 hr after two trains” value in data set [3] (Tet-CN279 on doxycycline (mutant sentence), 1 mg/ml in water supply, 1 ng/ml in ACSF) is given as 184±18%; in data set [3] (printed 'Tet-CN279 mutant mice on doxycycline' in the sentence on wild-type mice on or off doxycycline) it was 191±18%.
